One compound from PMC10590383, “Repurposing conformational changes in ANL superfamily enzymes to rapidly generate biosensors for organic and amino acids” (Nature Communications, 2023) can be followed below.

The term EC50 denotes the midpoint of the concentration-response curve.

One experiment has as its target T1, GECFINDER-Phe3.2 (Aneurinibacillus migulanus, UniProt P0C061, A301E/F234I).
T1 construct: gene grsA
Kind of experiment: Fluorescence dose-response of purified affinity-lowered […]-Phe3 mutants with phenylalanine, 100 mM Tris pH 7.5, room temperature, 1 mM ATP, 2.5 mM MgCl2. It counts as biochemical. The text has this: (§1) Generally, industrial amino acid-producing strains produce phenylalanine at the grams per liter level, which greatly exceeds the dynamic range of […]-Phe3. Thus, we had to re-engineer the affinity of […]-Phe3 without affecting its ligand specificity, for phenylalanine to enable the screening of industrial phenylalanine-producing strains First, we performed virtual alanine scanning on the amino acid residues near the substrate pocket of […]-Phe3 using Discovery Studio 2019. […] Subsequently, we performed virtual saturation mutations on the F234 site (Supplementary Fig. 8b) and selected F234I, which has a medium mutation energy value ranking, for experimental verification. […] To further reduce the affinity of the F234I mutant ([…]-Phe3.1) for phenylalanine, a site-saturation library of A301 based on […]-Phe3.1 was created and screened. […] The substrate specificity and thermal stability of […]-Phe3.2 were evaluated.
(§2) Fig. 5 […] applies for FADS sorting. a Dose–response curves of purified […]-Phe3, 3.1 and 3.2 with increasing concentrations of phenylalanine. b Phenylalanine biosynthesis pathway in C. glutamicum. Dotted and dashed lines represented feedback inhibition and repression, respectively. Two target genes were highlighted in red. […] RBS strength was determined using a GFP reporter system. Scale bar represented GFP fluorescence normalized with OD600 nm. […]

The target in a further experiment is T2, GECFINDER-Phe3.1 (Aneurinibacillus migulanus, UniProt P0C061, F234I).
T2 construct: gene grsA
T2 sequence (P0C061 1-617 F234I): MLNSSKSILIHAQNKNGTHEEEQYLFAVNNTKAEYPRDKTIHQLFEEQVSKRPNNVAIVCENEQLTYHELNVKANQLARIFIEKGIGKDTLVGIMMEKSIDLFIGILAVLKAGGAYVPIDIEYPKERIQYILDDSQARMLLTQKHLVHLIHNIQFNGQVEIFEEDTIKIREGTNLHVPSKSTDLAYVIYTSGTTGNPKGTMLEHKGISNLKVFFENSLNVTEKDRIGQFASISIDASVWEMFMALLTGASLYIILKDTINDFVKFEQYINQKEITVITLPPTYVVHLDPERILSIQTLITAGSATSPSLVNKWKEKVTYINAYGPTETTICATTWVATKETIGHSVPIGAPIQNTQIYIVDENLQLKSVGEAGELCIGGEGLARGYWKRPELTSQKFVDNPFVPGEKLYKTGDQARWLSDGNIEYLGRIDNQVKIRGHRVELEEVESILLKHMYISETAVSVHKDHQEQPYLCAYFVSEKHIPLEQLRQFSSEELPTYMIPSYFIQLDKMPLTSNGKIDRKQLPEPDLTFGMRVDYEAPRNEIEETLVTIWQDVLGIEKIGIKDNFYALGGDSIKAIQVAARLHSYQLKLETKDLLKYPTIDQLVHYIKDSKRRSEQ
Described as above. It counts as biochemical.
Excerpt: as §1, §2

T1 sequence (P0C061 1-617 F234I/A301E): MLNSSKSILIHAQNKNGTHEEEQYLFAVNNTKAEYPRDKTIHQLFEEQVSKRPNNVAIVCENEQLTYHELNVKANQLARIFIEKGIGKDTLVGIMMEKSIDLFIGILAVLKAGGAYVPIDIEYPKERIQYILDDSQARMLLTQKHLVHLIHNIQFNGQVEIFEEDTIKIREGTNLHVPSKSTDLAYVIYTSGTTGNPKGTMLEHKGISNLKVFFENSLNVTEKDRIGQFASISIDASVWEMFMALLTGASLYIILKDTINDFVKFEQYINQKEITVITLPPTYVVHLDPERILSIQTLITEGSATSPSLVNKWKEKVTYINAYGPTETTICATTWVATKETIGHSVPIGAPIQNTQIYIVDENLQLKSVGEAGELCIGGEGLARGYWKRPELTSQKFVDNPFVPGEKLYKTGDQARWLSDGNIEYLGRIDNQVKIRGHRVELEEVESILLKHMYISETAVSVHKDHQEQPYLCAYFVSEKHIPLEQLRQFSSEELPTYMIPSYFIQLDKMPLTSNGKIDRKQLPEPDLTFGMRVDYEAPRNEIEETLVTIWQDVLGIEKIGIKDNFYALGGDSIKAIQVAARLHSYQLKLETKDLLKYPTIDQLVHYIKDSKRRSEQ

As for `N[C@@H](Cc1ccccc1)C(=O)O` [Phe, phenylalanine], the EC50 at GECFINDER-Phe3.2 is 67.6 µM; at GECFINDER-Phe3.1 it was 7.51 µM.
